Measurements from patent US5639726A, “Peptide mediated enhancement of thrombolysis methods and compositions” (The Regents of the University of Michigan, priority 1994, dated 1997).
Ends that are not written are not given here.

Columns and labels:
PAI-1 [1] = biological target: T1, PAI-1 (Homo sapiens, UniProt P05121); test: Kinetics of peptide annealing: residual PAI inhibitory activity assayed with β-trypsin and S-2222; format: biochemical; conditions: peptide 5.5 mM; 25° C.
T1 construct: made in house; host or cells: E. coli (vector pET3a)
Procedure: PAI-1 (6.4 μM) was incubated with increasing concentrations of each peptide at 23° C. and the (T1/2) of PAI-1 inactivation was determined by measuring the PAI-1 activity remaining over time.
Peptides were dissolved in 1 mM HCl+1% TWEEN-80 (the three PAI peptides) (SEQ ID NOS: 1-3), or in 0.1M HEPES (SEQ ID NOS: 4-5), 0.1M NaCl, 0.1% PEG-8000, pH […] (the two consensus peptides). Peptides were annealed to active PAI by incubation of active PAI in 0.1M HEPES, 0.1M NaCl, 0.1% PEG-8000, pH 7.4 with a peptide in its solvent. Ten percent of the final incubation mixture consisted of the peptide solvent. Incubation was carried out at 25° C. until no PAI inhibitory activity remained as determined by kinetics rate assays with trypsin, described below. The final concentration of PAI in the incubation mixture was either 0.9 μM (for kinetics assays) or 6.3 μM (for gels and purification). The peptide concentrations varied greatly due to the individual solubilities and rates of insertion of each peptide. These concentrations are given in the legends of the appropriate figures.
During annealing of 0.9 μM PAI with a peptide, the residual inhibitory activity of PAI was measured after varying incubation times by assaying an aliquot of the sample with β-trypsin. Trypsin (1 nM final concentration) was added to the chromogenic substrate S-2222 (950 μM) with 27 nM PAI sample. The absorbance at 405 nm was measured continuously for at least 12.5 min in a Shimadzu UV-265 UV-visible spectrophotometer. The pseudo-first order rate constant of trypsin is an indirect measure of the amount of PAI that has lost inhibitory activity due either to annealing or to becoming latent. The rate constant of controls containing the peptide solvent but no peptide was subtracted from that of the experimental assays in order to correct for the effect of the simultaneous change of PAI from the active to the latent state.

PAI-1 [2] = biological target: T1, PAI-1; test: Plasminogen activator inhibitor 1 activity assay (t-PA, Spectrozyme t-PA); format: biochemical; conditions: for PAI-1 T1/2: PAI-1 0.7 μM, peptide 55 μM, 98±18 min without peptide
Procedure: PAI-1 (0.7 μM) was incubated at 37° C. with either P1-P14 peptide or control peptide (55 μM) in 0.1M HEPES, 0.1M NACl, 0.1% PEG (MW 8000), pH 7.4 (assay buffer). At timed intervals 0-110 minutes), 5 μL of the PAI-1:peptide mixture was added to 96 well microtiter plates containing 45 μL of t-PA (0.03 μM in assay buffer), then incubated for 30 minutes at 37° C. Spectrozyme t-PA (final concentration of 150 μM) was added to yield a final reaction volume of 70 μL, and 30 minutes later the absorbance at 405 nm was determined in a THERMO-max (Molecular Devices, Palo Alto, Calif.) microplate reader. 100% PAI-1 activity was defined as activity observed at time zero, while 0% PAI-1 activity was defined as that observed in the absence of PAI-1. A standard t-PA activity curve, derived from absorbance values of varying concentrations of t-PA incubated in the absence of PAI-1, was used to determine PAI-1 activity.

T1 sequence (P05121 24-402): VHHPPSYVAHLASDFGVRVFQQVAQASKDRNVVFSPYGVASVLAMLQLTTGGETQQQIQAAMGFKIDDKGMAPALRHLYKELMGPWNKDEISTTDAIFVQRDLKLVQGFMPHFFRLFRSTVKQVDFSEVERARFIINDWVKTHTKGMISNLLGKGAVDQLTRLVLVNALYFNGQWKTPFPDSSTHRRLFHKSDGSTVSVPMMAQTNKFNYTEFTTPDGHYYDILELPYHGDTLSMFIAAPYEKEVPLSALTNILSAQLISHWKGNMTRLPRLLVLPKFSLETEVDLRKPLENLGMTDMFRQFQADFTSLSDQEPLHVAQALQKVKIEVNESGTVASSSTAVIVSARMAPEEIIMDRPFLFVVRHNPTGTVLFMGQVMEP

k (PAI-1 [1]): .014 M⁻¹ s⁻¹
PAI-1 T1/2 (PAI-1 [2]; 37° C.): approximately four
PAI-1 T1/2 (PAI-1 [2]; 37° C., listed as P1-P14 peptide): 4 ± 3 min
fold shortening of the PAI-1 T1/2 (PAI-1 [2]; 37° C., peptide 55 μM vs no peptide, listed as P1-P14 peptide): 24 fold
drop in t1/2, wt14-mer (37° C.) compared to wt8-mer (25° C.) (PAI-1 [2]; similar peptide concentrations (55 μM)): 100 fold
Substance: Ac-TVASSSTAVIVSAR [SEQ ID NO: 1, Thr-Val-Ala-Ser-Ser-Ser-Thr-Ala-Val-Ile-Val-Ser-Ala-Arg]
